Experiments:
macrophage = experiment: Anti-inflammatory effect on LPS-activated macrophage: activation surface markers by flow cytometry; type: cell-based; conditions: 5 μM compound; macrophage activated with 100 ng/mL LPS; 24 hours after LPS treatment; flow cytometry (FIG. 1A-1C)
Description: Dysregulation of immune activation in innate immune cell is the main factor initiating cytokine release syndrome. Immune regulatory effects of the compound of Chemical Formula 1 on macrophage were assessed employing compound 18a (DMRC200434). 5 μM DMRC200434 was treated on activated macrophage with 100 ng/mL lipopolysaccharide (LPS) (Sigma-Aldrich). 24 hours after LPS treatment, activation markers (CD40, CD80, CD86) were measured by flow cytometry.

[1] = tested on: LPS induced endotoxemia model; experiment: LPS induced endotoxemia model, survival; type: in vivo, C57BL/6 mice; conditions: 30 mg/kg injected 24 hours prior to and at start of LPS (50 mg/kg) injection; survival observed for 50 hours (FIG. 2)
Description: 6 to 8-week female C57BL/6 mice (Jackson Lab) were used according to an animal protocol approved by the Institutional Animal Care and Use Committee of Kyungpook National University.
Compound of Chemical Formula 1 (DMRC200434, 30 mg/kg) was dissolved in a solution of 5%—DMSO: 95%—20% PEG400(Saline) and was injected at two points—at 24 hours prior to, and at the start of LPS (50 mg/kg) injection.
The inventors analyzed the efficacy of a compound of Chemical Formula 1 in vivo on LPS-induced endotoxemia model employing DMRC200434. To assess the effect of DMRC200434 on endotoxemia, DMRC200434 was treated on LPS induced endotoxemia model.

CC(C)N1CCN(c2ccc(/C(=C(/CCCO)c3ccccc3)c3ccc(O)cc3)cc2)CC1 [DMRC200434, (E)-5-(4-hydroxyphenyl)-5-(4-(4-isopropylpiperazin-1-yl)phenyl)-4-phenylpent-4-en-1-ol]
expression of inflammatory surface marker CD40 (macrophage): downregulated | expression of inflammatory surface marker CD80 (macrophage): downregulated | expression of inflammatory surface marker CD86 (macrophage): downregulated | endotoxin mediated death (survival) [1]: significantly delayed

Source: US11850246B2, “Method for treatment of cytokine release syndrome” (NOVMETAPHARMA CO., LTD., priority 2020, dated 2023)
